Measurements from patent US20230159527A1, “COMPOUNDS AS BCL-2 INHIBITORS” (Fochon Pharmaceuticals, Ltd., priority 2020, published 2023).

Each compound was assayed on DoHH2 cells (assay: Cell proliferation assay, DoHH2 cells (MTS, 120 h)). Conditions: Homo sapiens, DOHH-2.
Type: cell-based
Protocol: MTS testing kit was purchased from Promega (Madison, Wis., USA). The RPMI-1640, Fetal bovine serum and Penicillin-Streptomycin were purchased from BI (Biological Industries, Beit Haemek, Israel). Dimethyl sulfoxide (DMSO) was purchased from Sigma (St. Louis, Mo., USA). DoHH2 (DSMZ catalog #: ACC47) cells were cultured in RPMI-1640 supplemented with Penicillin-Streptomycin and 10% FBS.
To investigate whether a compound is able to inhibit the activity of BCL-2 in cells, a mechanism-based assay using DoHH2 lines was developed. In this assay, the inhibition of BCL-2 was reflected by the inhibition of cell proliferation of DoHH2 cells. Cells were plated into 96-well plates at the optimized cell density of 5000 cells/well. Plates were incubated at 37° C., with 5% CO2 for 4h. Compounds were serially diluted and added to the plates with the final concentrations of 10000, 3333.3, 1111.1, 370.4, 123.5, 41.2, 13.7, 4.6 and 1.5 nM. Plates were incubated at 37° C., with 5% CO2 for 120 h. 20 μl MTS was added into each well and the plates were incubated at 37° C., with 5% CO2 for exactly 2 h. The absorbance was measured by a microplate reader at 490 nm. IC50 was calculated using GraphPad Prism 5.0 software.

SMILES | IC50
CC1(O)CCC(CNc2ncc(S(=O)(=O)NC(=O)c3ccc(N4CCC5(CC4)CC(N4CCC[C@H]4c4ccccc4C4CC4)C5)cc3Oc3cnc4[nH]ccc4c3)cc2[N+](=O)[O-])CC1 (stereo partly drawn) [Example A-1b, (S)-2-((1H-pyrrolo[2,3-b]pyridin-5-yl)oxy)-4-(2-(2-(2-cyclopropylphenyl)pyrrolidin-1-yl)-7-azaspiro[3.5]nonan-7-yl)-N-((6-(((4-hydroxy-4-methylcyclohexyl)methyl)amino)-5-nitropyridin-3-yl)sulfonyl)benzamide] | ≤ 1 nM
CC(C)c1ccccc1[C@@H]1CCC[C@@H]1N1CC2(CCN(c3ccc(C(=O)NS(=O)(=O)c4cnc(NC[C@H]5CC[C@](C)(O)CC5)c([N+](=O)[O-])c4)c(Oc4cnc5[nH]ccc5c4)c3)CC2)C1 (single isomer, unassigned) [Example A-136, 2-((1H-pyrrolo[2,3-b]pyridin-5-yl)oxy)-N-((6-((((1r,4r)-4-hydroxy-4-methylcyclohexyl)methyl)amino)-5-nitropyridin-3-yl)sulfonyl)-4-(2-((1R,2R or 1S, 2S)-2-(2-isopropylphenyl)cyclo-pentyl)-2,7-diazaspiro[3.5]nonan-7-yl)benzamide] | ≤ 1 nM
CC(C)c1ccccc1C1CCCN1C1CC2(CCN(c3ccc(C(=O)NS(=O)(=O)c4cc([N+](=O)[O-])c5c(n4)OC[C@H](CC4CCOCC4)N5)c(Oc4cnc5[nH]ccc5c4)c3)CC2)C1 (single isomer, unassigned) [Example B-40, 2-((1H-pyrrolo[2,3-b]pyridin-5-yl)oxy)-4-(2-((R or S)-2-(2-isopropylphenyl)pyrrolidin-1-yl)-7-azaspiro[3.5]nonan-7-yl)-N-(((S)-8-nitro-2-((tetrahydro-2H-pyran-4-yl)methyl)-2,3-dihydro-1H-pyrido[2,3-b][1,4]oxazin-6-yl)sulfonyl)benzamide] | ≤ 1 nM
O=C(NS(=O)(=O)c1cc2c(c([N+](=O)[O-])c1)O[C@@H](CN1CCOCC1)CO2)c1ccc(N2CCC3(CC2)CC(N2CCC[C@H]2c2ccccc2C2CC2)C3)cc1Oc1cnc2[nH]ccc2c1 (single isomer, unassigned) [Example E-34, 2-((1H-pyrrolo [2,3-b]pyridin-5-yl)oxy)-4-(2-((R or S)-2-(2-cyclopropylphenyl)pyrrolidin-1-yl)-7-azaspiro[3.5]nonan-7-yl)-N-(((5)-2-(morpholinomethyl)-8-nitro-2,3-dihydrobenzo [b][1,4]dioxin-6-yl)sulfonyl) benzamide] | ≤ 1 nM
CC(C)c1ccccc1C1COCCN1C1CC2(CCN(c3ccc(C(=O)NS(=O)(=O)c4cc5c(c([N+](=O)[O-])c4)O[C@@H](CN4CCOCC4)CO5)c(Oc4cnc5[nH]ccc5c4)c3)CC2)C1 (single isomer, unassigned) [Example E-36, 2-((1H-pyrrolo [2,3-b]pyridin-5-yl)oxy)-4-(2-((R or S)-3-(2-isopropylphenyl)morpholino)-7-azaspiro[3.5]nonan-7-yl)-N-(((S)-2-(morpholinomethyl)-8-nitro-2,3-dihydrobenzo [b][1,4]dioxin-6-yl)sulfonyl)benzamide] | ≤ 1 nM
CC(C)c1ccccc1[C@@H]1COCCN1C1CC2(CCN(c3ccc(C(=O)NS(=O)(=O)c4cc([N+](=O)[O-])c5c(n4)OC[C@H]([C@H]4CC[C@@](C)(O)CC4)N5)c(Oc4cnc5[nH]ccc5c4)c3)CC2)C1 (single isomer, unassigned) [Example B-48, 2-((1H-pyrrolo[2,3-b]pyridin-5-yl)oxy)-N-(((S)-2-((1s,4R)-4-hydroxy-4-methylcyclohexyl)-8-nitro-2,3-dihydro-1H-pyrido[2,3-b] [1,4]oxazin-6-yl)sulfonyl)-4-(2-((R or S)-3-(2-isopropylphenyl)morpholino)-7-azaspiro[3.5]nonan-7-yl) benzamide] | ≤ 1 nM
CC(C)c1ccccc1C1CCCN1C1CC2(CCN(c3ccc(C(=O)NS(=O)(=O)c4cc([N+](=O)[O-])c5c(n4)OC[C@@H](Cc4ccccc4)N5)c(Oc4cnc5[nH]ccc5c4)c3)CC2)C1 (single isomer, unassigned) [Example B-36, 2-((1H-pyrrolo[2,3-b]pyridin-5-yl)oxy)-N-(((R)-2-benzyl-8-nitro-2,3-dihydro-1H-pyrido[2,3-b] [1,4]oxazin-6-yl)sulfonyl)-4-(2-((R or S)-2-(2-isopropylphenyl)pyrrolidin-1-yl)-7-azaspiro[3.5]nonan-7-yl)benzamide] | ≤ 1 nM
CC(C)c1ccccc1[C@@H]1CCCN1C1CC2(CCN(c3ccc(C(=O)NS(=O)(=O)c4cc([N+](=O)[O-])c5c(n4)OC[C@H]([C@H]4CC[C@@](C)(O)CC4)N5)c(Oc4cnc5[nH]ccc5c4)c3)CC2)C1 (single isomer, unassigned) [Example B-35, 2-((1H-pyrrolo[2,3-b]pyridin-5-yl)oxy)-N-(((S)-2-((1s,4R)-4-hydroxy-4-methylcyclohexyl)-8-nitro-2,3-dihydro-1H-pyrido[2,3-b] [1,4]oxazin-6-yl)sulfonyl)-4-(2-((R or S)-2-(2-isopropylphenyl)pyrrolidin-1-yl)-7-azaspiro[3.5]nonan-7-yl)benzamide] | ≤ 1 nM
CC(C)c1ccccc1[C@@H]1CCCN1C1CC2(CCN(c3ccc(C(=O)NS(=O)(=O)c4cnc(NCC5CCC(C)(O)CC5)c([N+](=O)[O-])c4)c(Oc4cnc5[nH]ccc5c4)c3)CC2)C1 (stereo partly drawn) [Example A-6b, (S)-2-((1H-pyrrolo[2,3-b]pyridin-5-yl)oxy)-N-((6-(((4-hydroxy-4-methylcyclohexyl)methyl)amino)-5-nitropyridin-3-yl)sulfonyl)-4-(2-(2-(2-isopropylphenyl)pyrrolidin-1-yl)-7-azaspiro[3.5]nonan-7-yl) benzamide] | ≤ 1 nM
O=C(NS(=O)(=O)c1cc([N+](=O)[O-])c2c(n1)OC[C@H](COC1CCOCC1)N2)c1ccc(N2CCC3(CC2)CC(N2CCCC2c2ccccc2C2CC2)C3)cc1Oc1cnc2[nH]ccc2c1 (single isomer, unassigned) [Example B-46, 2-((1H-pyrrolo[2,3-b]pyridin-5-yl)oxy)-4-(2-((R or S)-2-(2-cyclopropylphenyl)pyrrolidin-1-yl)-7-azaspiro[3.5]nonan-7-yl)-N-(((S)-8-nitro-2-(((tetrahydro-2H-pyran-4-yl)oxy)methyl)-2,3-dihydro-1H-pyrido[2,3-b] [1,4]oxazin-6-yl)sulfonyl)benzamide] | ≤ 1 nM
O=C(NS(=O)(=O)c1cc2c(c([N+](=O)[O-])c1)O[C@@H](CN1CCOCC1)CO2)c1ccc(N2CCC3(CC2)CC(N2CCOC[C@H]2c2ccccc2C2CC2)C3)cc1Oc1cnc2[nH]ccc2c1 (single isomer, unassigned) [Example E-37, 2-((1H-pyrrolo [2,3-b]pyridin-5-yl)oxy)-4-(2-((R or S)-3-(2-cyclopropylphenyl)morpholino)-7-azaspiro[3.5]nonan-7-yl)-N-(((S)-2-(morpholinomethyl)-8-nitro-2,3-dihydrobenzo [b][1,4]dioxin-6-yl)sulfonyl) benzamide] | ≤ 1 nM
O=C(NS(=O)(=O)c1cc2c(c([N+](=O)[O-])c1)N[C@@H](CN1CCOCC1)CCO2)c1ccc(N2CCC3(CC2)CC(N2CCC[C@H]2c2ccccc2C2CC2)C3)cc1Oc1cnc2[nH]ccc2c1 (single isomer, unassigned) [Example D-24, 2-((1H-pyrrolo[2,3-b]pyridin-5-yl)oxy)-4-(2-((R or S)-2-(2-cyclopropylphenyl)pyrrolidin-1-yl)-7-azaspiro[3.5]nonan-7-yl)-N-(((R)-4-(morpholinomethyl)-6-nitro-2,3,4,5-tetrahydrobenzo [b][1,4]oxazepin-8-yl)sulfonyl) benzamide] | ≤ 1 nM
CC(C)c1ccccc1C1COCCN1C1CC2(CCN(c3ccc(C(=O)NS(=O)(=O)c4cc5c(c([N+](=O)[O-])c4)N[C@@H](CN4CCC(NS(C)(=O)=O)CC4)CO5)c(Oc4cnc5[nH]ccc5c4)c3)CC2)C1 (single isomer, unassigned) [Example D-23, 2-((1H-pyrrolo[2,3-b]pyridin-5-yl)oxy)-4-(2-((R or S)-3-(2-isopropylphenyl)morpholino)-7-azaspiro[3.5]nonan-7-yl)-N-(((S)-3-((4-(methylsulfonamido)piperidin-1-yl)methyl)-5-nitro-3,4-dihydro-2H-benzo[b][1,4]oxazin-7-yl)sulfonyl)benzamide] | ≤ 1 nM
CC(C)c1ccccc1C1COCCN1C1CC2(CCN(c3ccc(C(=O)NS(=O)(=O)c4cc([N+](=O)[O-])c5c(n4)OC[C@H](CC4CCOCC4)N5)c(Oc4cnc5[nH]ccc5c4)c3)CC2)C1 (single isomer, unassigned) [Example B-51, 2-((1H-pyrrolo[2,3-b]pyridin-5-yl)oxy)-4-(2-((R or S)-3-(2-isopropylphenyl)morpholino)-7-azaspiro[3.5]nonan-7-yl)-N-(((S)-8-nitro-2-((tetrahydro-2H-pyran-4-yl)methyl)-2,3-dihydro-1H-pyrido[2,3-b][1,4]oxazin-6-yl)sulfonyl)benzamide] | ≤ 1 nM

These compounds were tested on Toledo cells (assay: Cell proliferation assay, Toledo cells (MTS, 72 h)). Conditions: Homo sapiens, Toledo cells, MTS, read-out: Toledo IC50.
Type: cell-based
In short: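 IC50 was derived from 490 nm absorbance after a 2 h MTS step. Before that, compounds at 1.5–10000 nM final (nine points) acted on Toledo cells for 72 h at 37 °C, 5% CO2. Cells were seeded at 30000/well in 10% FBS RPMI-1640 and rested 4 h before dosing.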

SMILES | IC50
CC(C)c1ccccc1[C@@H]1CCC[C@@H]1N1CC2(CCN(c3ccc(C(=O)NS(=O)(=O)c4cnc(NC[C@H]5CC[C@](C)(O)CC5)c([N+](=O)[O-])c4)c(Oc4cnc5[nH]ccc5c4)c3)CC2)C1 (single isomer, unassigned) [Example A-136, 2-((1H-pyrrolo[2,3-b]pyridin-5-yl)oxy)-N-((6-((((1r,4r)-4-hydroxy-4-methylcyclohexyl)methyl)amino)-5-nitropyridin-3-yl)sulfonyl)-4-(2-((1R,2R or 1S, 2S)-2-(2-isopropylphenyl)cyclo-pentyl)-2,7-diazaspiro[3.5]nonan-7-yl)benzamide] | 1 nM
